{
  "source": "ChEMBL document CHEMBL1127256",
  "about": "“Synthesis of C2-symmetric inhibitors of the HIV-1 protease, with N,N-substituted ethylenediamide and ethylenediamine linkers” (Bioorg Med Chem Lett, 1994)",
  "key": {"[1]": {"biological_target": "Human immunodeficiency virus type 1 protease (Human immunodeficiency virus 1) (UniProt Q72874)", "assay": "Percent inhibition of HIV-1 protease against substrate HKARVL-(NO2)F-EAnLSNH2 (test III) at a concentration of 10 e-5M; Inactive"}, "[2]": {"biological_target": "Human immunodeficiency virus type 1 protease (Human immunodeficiency virus 1) (UniProt Q72874)", "assay": "Percent inhibition of HIV-1 protease against substrate SQN-(pNO2)F-PIV (test II) at a concentration of 10 e-5M"}, "[3]": {"biological_target": "Human immunodeficiency virus type 1 protease (Human immunodeficiency virus 1) (UniProt Q72874)", "assay": "Percent inhibition of HIV-1 protease against substrate TLNFPIS-AMC (test I) at a concentration of 10 e-5M"}, "[4]": {"biological_target": "Human immunodeficiency virus type 1 protease (Human immunodeficiency virus 1) (UniProt Q72874)", "assay": "Percent inhibition of HIV-1 protease against substrate HKARVL-(NO2)F-EAnLSNH2 (test III) at a concentration of 10 e-5M"}, "[5]": {"biological_target": "Human immunodeficiency virus type 1 protease (Human immunodeficiency virus 1) (UniProt Q72874)", "assay": "Percent inhibition of HIV-1 protease against substrate SQN-(pNO2)F-PIV (test II) at a concentration of 10 e-5M; Inactive"}, "[6]": {"biological_target": "Human immunodeficiency virus type 1 protease (Human immunodeficiency virus 1) (UniProt Q72874)", "assay": "Percent inhibition of HIV-1 protease against substrate TLNFPIS-AMC (test I) at a concentration of 10 e-5M; Inactive"}, "[7]": {"biological_target": "Human immunodeficiency virus type 1 protease (Human immunodeficiency virus 1, UniProt Q72874)", "assay": "Inhibitory concentration against HIV-1 protease"}},
  "note": "Calls of active or inactive are those of the source. The rule behind the calls is not given here.",
  "data": [
    {"smiles": "CC(C)[C@H](NC(=O)OCc1ccccc1)C(=O)N[C@H](CNCCNC[C@H](Cc1ccccc1)NC(=O)[C@H](NC(=O)OCc1ccccc1)C(C)C)Cc1ccccc1", "values": [
      {"measurement": "inhibition", "setting": "[1]", "value": "inactive"},
      {"measurement": "inhibition", "setting": "[2]", "value": 3, "unit": "%"},
      {"measurement": "inhibition", "setting": "[3]", "value": 3, "unit": "%"}
    ]},
    {"smiles": "CC(C)[C@H](NC(=O)OCc1ccccc1)C(=O)N[C@@H](Cc1ccccc1)CN(C)CCN(C)C[C@H](Cc1ccccc1)NC(=O)[C@H](NC(=O)OCc1ccccc1)C(C)C", "values": [
      {"measurement": "inhibition", "setting": "[1]", "value": "inactive"},
      {"measurement": "inhibition", "setting": "[2]", "value": 3, "unit": "%"},
      {"measurement": "inhibition", "setting": "[3]", "value": 3, "unit": "%"}
    ]},
    {"smiles": "CC(C)[C@H](NC(=O)OCc1ccccc1)C(=O)N[C@@H](Cc1ccccc1)C(=O)N(C)CCN(C)C(=O)[C@H](Cc1ccccc1)NC(=O)[C@H](NC(=O)OCc1ccccc1)C(C)C", "values": [
      {"measurement": "inhibition", "setting": "[4]", "value": 16, "unit": "%"},
      {"measurement": "inhibition", "setting": "[5]", "value": "inactive"},
      {"measurement": "inhibition", "setting": "[6]", "value": "inactive"}
    ]},
    {"smiles": "CC(C)[C@H](NC(=O)OCc1ccccc1)C(=O)N[C@@H](Cc1ccccc1)C(=O)NCCNC(=O)[C@H](Cc1ccccc1)NC(=O)[C@H](NC(=O)OCc1ccccc1)C(C)C", "values": [
      {"measurement": "inhibition", "setting": "[4]", "value": 25, "unit": "%"},
      {"measurement": "inhibition", "setting": "[5]", "value": "inactive"},
      {"measurement": "inhibition", "setting": "[6]", "value": "inactive"}
    ]},
    {"smiles": "CC(C)[C@H](NC(=O)OCc1ccccc1)C(=O)N[C@@H](Cc1ccccc1)[C@@H](O)[C@H](O)[C@H](Cc1ccccc1)NC(=O)[C@H](NC(=O)OCc1ccccc1)C(C)C", "values": [
      {"measurement": "IC50", "setting": "[7]", "value": "< 1", "unit": "nM"}
    ]},
    {"smiles": "CC(C)[C@H](NC(=O)OCc1ccccc1)C(=O)N[C@@H](Cc1ccccc1)CN(CCO)CCN(CCO)C[C@H](Cc1ccccc1)NC(=O)[C@H](NC(=O)OCc1ccccc1)C(C)C", "values": [
      {"measurement": "inhibition", "setting": "[4]", "value": 9, "unit": "%"},
      {"measurement": "inhibition", "setting": "[2]", "value": 30, "unit": "%"},
      {"measurement": "inhibition", "setting": "[3]", "value": 8, "unit": "%"}
    ]},
    {"smiles": "CC(C)[C@H](NC(=O)OCc1ccccc1)C(=O)N[C@@H](Cc1ccccc1)CN(CCN(C[C@H](Cc1ccccc1)NC(=O)[C@H](NC(=O)OCc1ccccc1)C(C)C)C(=O)OC(C)(C)C)C(=O)OC(C)(C)C", "values": [
      {"measurement": "inhibition", "setting": "[1]", "value": "inactive"},
      {"measurement": "inhibition", "setting": "[2]", "value": 3, "unit": "%"},
      {"measurement": "inhibition", "setting": "[3]", "value": 3, "unit": "%"}
    ]},
    {"smiles": "CC(C)[C@H](NC(=O)OCc1ccccc1)C(=O)N[C@@H](Cc1ccccc1)CN(CCN(CC(=O)O)C[C@H](Cc1ccccc1)NC(=O)[C@H](NC(=O)OCc1ccccc1)C(C)C)CC(=O)O", "values": [
      {"measurement": "inhibition", "setting": "[4]", "value": 33, "unit": "%"},
      {"measurement": "inhibition", "setting": "[2]", "value": 53, "unit": "%"},
      {"measurement": "inhibition", "setting": "[3]", "value": 36, "unit": "%"}
    ]}
  ]
}
